Measurements published in EP0092073A1, “Magnesium salt of chenodeoxycholic acid and ursodeoxycholic acid, the process for its preparation, and therapeutic compositions which contain it as active principle” (SCHWARZ ITALIA S.p.A., priority 1982, dated 1983).
Read-outs that look alike come from different tables or passages of the source.

Tests used:
[1] = system: hampsters; assay: Bile lipid and bile acid contents of the bile (cholesterol-enriched diet, 80 days); assay type: in vivo
Description: (§1) The investigations were carried out on hampsters (of female sex, but excluding those in a state of pregnancy) having an initial weight of 75-90 g. They were treated for 80 days with oral administration (by gastric probe) of MG-UCD (10-20 mg/kg/day), chenodeoxycholic acid (10-20 mg/kg/day) or ursodeoxycholic acid (10-20 mg/kg/day) (Tables 4 and 5). The animals were maintained for 80 consecutive days on a Nossan feed diet for rats, enriched with cholesterol (2 mg/g of food).
(§2) Each experimental group consisted of 10 units. After 80 days, the animals were narcotised with ethyl ether, and the bile was withdrawn, together with the calculi and crystals from the gall-bladder as described by Pearlman and coll. in Gastroenterology 77, 634 (1979).
The bile acid, phospholipid, cholesterol, cholic acid, chenodeoxycholic acid, ursodeoxycholic acid, DCA (deoxycholic acid) and LCA (lithocholic acid) contents were evaluated in the bile by the methods described by Pearlman and coll. (see above).

[2] = system: patients; assay: Controlled study in comparison with the free acids; tolerability in patients; assay type: in vivo; conditions: patients
[3] = system: hampsters; assay: Action on the formation of cholesterol calculi in the gall-bladder (cholesterol-enriched diet, 80 days); assay type: in vivo; conditions: female hampsters; for % animals with calculi / % animals with crystals: cholesterol-enriched diet
Description: as §1, §2

[4] = system: rat; assay: Acute lethality and toxicity, oral administration (gastric probe); assay type: in vivo; design: key to Toxic symptomatology Type: NN = no symptomatology; D = depression; conditions: oral
Description: (§3) Unless otherwise specified, the research was carried out using: a) Mg-UCD capsules as such; b) the powdered contents of Mg-UCD capsules; CDCA (chenodeoxycholic acid) and UDCA (ursodeoxycholic acid) as pure substance which in all cases was partly dissolved and partly suspended under warm conditions (T = 30°C) in 10% gum arabic mucilage (so as to administer 10-40 ml of liquid per kg orally). In certain cases, namely in the experiments involving parenteral administration, the active principle of Mg-UCD, the chenodeoxycholic acid and ursodeoxycholic acid were dissolved in distilled water of slightly alkaline pH (5-10 ml/kg).
(§4) The generally acute lethality, toxicity and tolerability were determined by oral administration of the Mg-UCD (by gastric probe) in the Mus musculus, rat and dog. Animals of both sexes were used, none of which were pregnant. They were fasted for about 12 hours before treatment (but allowing them free access to water). The investigations were carried out using the Mg-UCD in powder form. Comparative investigations were carried out on the rat and Mus musculus using the active principle by endoperitoneal administration, and chenodeoxycholic acid and ursodeoxycholic acid by oral administration (using a gastric probe). Each dose was administered to 20 rats or Mus musculus (10 male and 10 female) and to eight dogs (4 male and 4 female). The animals were observed attentively during the 7 days following administration, and any lethality, toxic symptoms, disturbances, functional variations determinable with the eye, behaviour etc. were noted.
(§5) The LD50 was determined 7 days after administration using the probit method.

[5] = as above; assay type: in vivo, Mus musculus; design: key to Toxic symptomatology Type: NN = no symptomatology; D = depression; conditions: in vivo, po; for mortality at 24 h / mortality at 168 h: oral; for mortality at 24 h: read-out: % mortality at following times after administration 24 h; for mortality at 168 h: read-out: % mortality at following times after administration 7 days; for LD50 at 168 h: probit method, read-out: LD50 (mg/kg with reliability limits) 7 days after treatment
Description: as §3, §4, §5

[6] = system: Mus musculus; assay: as above; assay type: in vivo; design: key to Toxic symptomatology Type: NN = no symptomatology; D = depression; conditions: oral
Description: as §3, §4, §5

[7] = mouse, 2000 mg/kg, M. musculus F, 2000 mg/kg
[8] = mouse, 2000 mg/kg, M. musculus M, 2000 mg/kg
[9] = mouse, 4000 mg/kg, M. musculus F, 4000 mg/kg
[10] = mouse, 4000 mg/kg, M. musculus M, 4000 mg/kg
[11] = mouse, 8000 mg/kg, M. musculus F, 8000 mg/kg
[12] = mouse, 8000 mg/kg, M. musculus M, 8000 mg/kg
[13] = rat, 2000 mg/kg, Rat F, 2000 mg/kg
[14] = rat, 2000 mg/kg, Rat M, 2000 mg/kg
[15] = rat, 4000 mg/kg, Rat F, 4000 mg/kg
[16] = rat, 4000 mg/kg, Rat M, 4000 mg/kg
[17] = rat, 8000 mg/kg, Rat F, 8000 mg/kg
[18] = rat, 8000 mg/kg, Rat M, 8000 mg/kg

C[C@H](CCC(=O)O)[C@H]1CC[C@H]2[C@@H]3[C@@H](O)C[C@@H]4C[C@H](O)CC[C@]4(C)[C@H]3CC[C@]12C [Ursodeoxycholic acid, 17β-(1-methyl-3-carboxypropyl)-ethiocholane-3α,7β-diol]
Bile acids (expressed as molar % ± s.e.) Cheno-deoxycholic acid ([1]; 10 mg/kg/day oral for 80 days): 12.4 ± 2.6 molar %
Bile acids (expressed as molar % ± s.e.) Cholic acid ([1]; 10 mg/kg/day oral for 80 days): 30.2 ± 4.1 molar %
Bile acids (expressed as molar % ± s.e.) DCA ([1]; 10 mg/kg/day oral for 80 days): 12.9 ± 0.8 molar %
Bile acids (expressed as molar % ± s.e.) LCA ([1]; 10 mg/kg/day oral for 80 days): 2.5 ± 0.1 molar %
Bile acids (expressed as molar % ± s.e.) Urso-deoxycholic acid ([1]; 10 mg/kg/day oral for 80 days): 36.2 ± 1.4 molar %
Bile lipids (expressed as molar % ± s.e.) Bile acids ([1]; 10 mg/kg/day oral for 80 days): 79.7 ± 4.1 molar %
Bile lipids (expressed as molar % ± s.e.) Cholesterol ([1]; 10 mg/kg/day oral for 80 days): 7.4 ± 0.4 molar %
Bile lipids (expressed as molar % ± s.e.) Phospho-lipids ([1]; 10 mg/kg/day oral for 80 days): 15.5 ± 1.0 molar %
Bile acids (expressed as molar % ± s.e.) Cheno-deoxycholic acid ([1]; 20 mg/kg/day oral for 80 days): 4.5 ± 0.9 molar %
Bile acids (expressed as molar % ± s.e.) Cholic acid ([1]; 20 mg/kg/day oral for 80 days): 17.9 ± 2.1 molar %
Bile acids (expressed as molar % ± s.e.) DCA ([1]; 20 mg/kg/day oral for 80 days): 10.5 ± 0.6 molar %
Bile acids (expressed as molar % ± s.e.) LCA ([1]; 20 mg/kg/day oral for 80 days): 3.9 ± 0.2 molar %
Bile acids (expressed as molar % ± s.e.) Urso-deoxycholic acid ([1]; 20 mg/kg/day oral for 80 days): 72.8 ± 4.7 molar %
Bile lipids (expressed as molar % ± s.e.) Bile acids ([1]; 20 mg/kg/day oral for 80 days): 81.3 ± 4.3 molar %
Bile lipids (expressed as molar % ± s.e.) Cholesterol ([1]; 20 mg/kg/day oral for 80 days): 5.7 ± 0.2 molar %
Bile lipids (expressed as molar % ± s.e.) Phospho-lipids ([1]; 20 mg/kg/day oral for 80 days): 15.8 ± 1.0 molar %
side effects [2]: tends to cause constipation
% animals with calculi ([3]; 10 mg/kg/day oral for 80 days): 40%
% animals with crystals ([3]; 10 mg/kg/day oral for 80 days): 20%
% animals with calculi ([3]; 20 mg/kg/day oral for 80 days): 0%
% animals with crystals ([3]; 20 mg/kg/day oral for 80 days): 0%
Body weight (g ± s.e.) after following days 80 ([3]; day 80, oral, 10 mg/kg/day): 141 ± 7 g
Toxic symptomatology Latency ([4]; Rat F, 2000 mg/kg): 5-10 min
Toxic symptomatology Type ([4]; Rat F, 2000 mg/kg): D
Toxic symptomatology Latency ([4]; Rat F, 4000 mg/kg): 5-10 min
Toxic symptomatology Type ([4]; Rat F, 4000 mg/kg): D
Toxic symptomatology Latency ([4]; Rat F, 8000 mg/kg): 5-10 min
Toxic symptomatology Type ([4]; Rat F, 8000 mg/kg): D
Toxic symptomatology Latency ([4]; Rat M, 2000 mg/kg): 5-10 min
Toxic symptomatology Type ([4]; Rat M, 2000 mg/kg): D
Toxic symptomatology Latency ([4]; Rat M, 4000 mg/kg): 5-10 min
Toxic symptomatology Type ([4]; Rat M, 4000 mg/kg): D
Toxic symptomatology Latency ([4]; Rat M, 8000 mg/kg): 5-10 min
Toxic symptomatology Type ([4]; Rat M, 8000 mg/kg): D
mortality at 24 h [5, 7]: 0%
mortality at 168 h [5, 7]: 0%
mortality at 24 h [5, 8]: 0%
mortality at 168 h [5, 8]: 0%
mortality at 24 h [5, 9]: 20%
mortality at 168 h [5, 9]: 20%
mortality at 24 h [5, 10]: 20%
mortality at 168 h [5, 10]: 20%
mortality at 24 h [5, 11]: 60%
mortality at 168 h [5, 11]: 70%
mortality at 24 h [5, 12]: 60%
mortality at 168 h [5, 12]: 80%
LD50 at 168 h ([5]; mouse, M. musculus F): 6140 mg/kg
LD50 at 168 h ([5]; mouse, M. musculus M): 5630 mg/kg
mortality at 24 h [5, 13]: 0%
mortality at 168 h [5, 13]: 0%
mortality at 24 h [5, 14]: 0%
mortality at 168 h [5, 14]: 0%
mortality at 24 h [5, 15]: 10%
mortality at 168 h [5, 15]: 10%
mortality at 24 h [5, 16]: 10%
mortality at 168 h [5, 16]: 10%
mortality at 24 h [5, 17]: 70%
mortality at 168 h [5, 17]: 60%
mortality at 24 h [5, 18]: 70%
mortality at 168 h [5, 18]: 70%
LD50 at 168 h ([5]; rat, Rat F): 7330 mg/kg
LD50 at 168 h ([5]; rat, Rat M): 6490 mg/kg
Toxic symptomatology Latency ([6]; M. musculus F, 2000 mg/kg): 5-10 min
Toxic symptomatology Type ([6]; M. musculus F, 2000 mg/kg): D
Toxic symptomatology Latency ([6]; M. musculus F, 4000 mg/kg): 5-10 min
Toxic symptomatology Type ([6]; M. musculus F, 4000 mg/kg): D
Toxic symptomatology Latency ([6]; M. musculus F, 8000 mg/kg): 5-10 min
Toxic symptomatology Type ([6]; M. musculus F, 8000 mg/kg): D
Toxic symptomatology Latency ([6]; M. musculus M, 2000 mg/kg): 5-10 min
Toxic symptomatology Type ([6]; M. musculus M, 2000 mg/kg): D
Toxic symptomatology Latency ([6]; M. musculus M, 4000 mg/kg): 5-10 min
Toxic symptomatology Type ([6]; M. musculus M, 4000 mg/kg): D
Toxic symptomatology Latency ([6]; M. musculus M, 8000 mg/kg): 5-10 min
Toxic symptomatology Type ([6]; M. musculus M, 8000 mg/kg): D
